Measured values reported in paper PMC10064330, “Reversible Dual-Covalent Molecular Locking of the 14-3-3/ERRγ Protein–Protein Interaction as a Molecular Glue Drug Discovery Approach” (Journal of the American Chemical Society, 2023).

Molecular target: T1, 14-3-3γ/ERRγ complex (Homo sapiens, UniProt P61981+P62508)
T1 construct: made in house; host or cells: E. coli NiCo21 (DE3)
Test: Intact mass spectrometry (QTOF-MS) crosslinking of 14-3-3γ and ERRγ
Format: biochemical
Settings: 14-3-3γ 5 μM; for consumption of apo-14-3-3γ into crosslinked ternary complex: ERRγ 25 μM, compound 50 μM, NaCNBH3 reduction, 4 h
Description: To further confirm the covalent crosslinking in solution, we performed intact mass spectrometry (MS) on the 14-3-3γ/ERRγ/5 and the 14-3-3γ/ERRγ/10 protein complexes. To ensure detection of the acid-labile imine-bonded complexes, the covalent imine bond was reduced in situ to the corresponding secondary amine using sodium cyanoborohydride. Samples were incrementally taken over 4 h and analyzed with high-resolution MS to determine crosslinking of the 14-3-3γ/ERRγ complex (Figure 2f–h and Figures S8 and S9). Intact MS analysis confirmed time-dependent crosslinking of the ternary complex (14-3-3γ/ERRγ/lock). […] A similar result was also observed for 10 (calculated mass: 33,080.4 Da) (Figure S11a–c).
Figure S8a. QTOF-MS analysis of 14-3-3/ERRg/5 ternary complex formation. LC-MS analysis of time-dependent crosslinking experiment of 14-3-3γ (5 µM) and ERRγ (25 µM) phosphopeptide by compound 5 (50 µM). Controls of just apo 14-3-3γ protein and protein incubated with compound 5 without ERRγ peptide are added. (Left) Chromatograms obtained for each sample after x amount of incubation. […] Calculated mass 14 -3-3γ […]
Figure S9. […] Based on the determined peak intensity of apo 14-3-3γ (peak A) and 14-3-3γ in complex with ERRg and staple 5 (peak B), the percentage of ternary complex is determined for each time point. […]
Different Scanning Fluorimetry (DSF) assays were performed using 40 µL samples containing 5 µM 14-3-3γ, 50 µM ERRγ pS179 9-mer peptide, 200 µM compound (or 1% DMSO) and 5x ProteoOrange (Lumiprobe, 5000x stock in DMSO) in 10 mM Hepes, 150 mM NaCl, 50 µM TCEP (pH 8.0). […] Fluorescence intensity was determined using excitation 470/40 nm and emission 570/20 nm filters. Based on these melting curves, the negative derivative melting curve is obtained from which the melting temperature Tm was determined. ΔTm values represent the differences in melting temperature relative to the DMSO control. All described melting temperatures are based on three independent experiments from which the average and standard deviations were determined using excel. […]

T1 sequence (P61981 whole entry, other chains not shown): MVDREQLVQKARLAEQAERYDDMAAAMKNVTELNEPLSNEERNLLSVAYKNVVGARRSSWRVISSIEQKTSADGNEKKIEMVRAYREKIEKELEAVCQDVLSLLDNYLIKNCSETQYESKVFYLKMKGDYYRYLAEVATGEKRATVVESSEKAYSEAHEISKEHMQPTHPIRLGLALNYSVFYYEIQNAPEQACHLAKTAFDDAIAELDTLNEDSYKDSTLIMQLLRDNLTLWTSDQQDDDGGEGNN

In the case of `CN(C)CCSSCCN(C)C(=O)c1cc(Br)cc(C=O)c1` [compound 10], the “consumption of apo-14-3-3γ into crosslinked ternary complex” value is reported as “complete consumption of apo-14-3-3γ was not observed”.
With `CN(C)CCSSCCN(C)C(=O)c1ccc(C=O)c(F)c1` [compound 5] the “consumption of apo-14-3-3γ into crosslinked ternary complex” value was “near quantitative consumption of apo-14-3-3γ” and the “crosslinking of 14-3-3/ERRγ in isolation” value (only ERRγ phosphopeptide 10 μM, 5 50 μM) was ~70%.
